The supplement of paper PMC10307832

Legend:
Assay in all cases: relative viability (nuclei count vs DMSO), 5 days (fraction); higher = more cells survive
Ponatinib + AZD7762 = compound: Cc1ccc(C(=O)Nc2ccc(CN3CCN(C)CC3)c(C(F)(F)F)c2)cc1C#Cc1cnc2cccnn12 [Ponatinib] + NC(=O)Nc1cc(-c2cccc(F)c2)sc1C(=O)N[C@H]1CCCNC1 [AZD7762] (partner 0.2 µM)
Method in brief: (§1)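 Five library-drug doses in √10 steps were combined with a fixed anchor-drug dose, or a single drug was given alone, by pin tool to lung cancer cell lines in 1536-well plates the day after seeding. Nuclei were stained and counted after 5 days. Relative viability is the nuclei count in treated wells over that in vehicle wells, taken as the median of duplicate plates.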

Pazopanib + Phenformin = compound: Cc1ccc(Nc2nccc(N(C)c3ccc4c(C)n(C)nc4c3)n2)cc1S(N)(=O)=O [Pazopanib] + N=C(N)NC(=N)NCCc1ccccc1 [Phenformin] (partner 250 µM)
Method in brief: as §1

Ponatinib + Tozasertib = compound: Cc1ccc(C(=O)Nc2ccc(CN3CCN(C)CC3)c(C(F)(F)F)c2)cc1C#Cc1cnc2cccnn12 [Ponatinib] + Cc1cc(Nc2cc(N3CCN(C)CC3)nc(Sc3ccc(NC(=O)C4CC4)cc3)n2)n[nH]1 [Tozasertib] (partner 0.1 µM)
Method in brief: as §1

Ponatinib + Pemetrexed = compound: Cc1ccc(C(=O)Nc2ccc(CN3CCN(C)CC3)c(C(F)(F)F)c2)cc1C#Cc1cnc2cccnn12 [Ponatinib] + Nc1nc2[nH]cc(CCc3ccc(C(=O)N[C@@H](CCC(=O)O)C(=O)O)cc3)c2c(=O)[nH]1 [Pemetrexed] (partner 0.2 µM)
Method in brief: as §1

Cell Line | relative viability (Ponatinib + AZD7762; first compound 0.002 µM) | relative viability (Ponatinib + AZD7762; first compound 0.006325 µM) | relative viability (Ponatinib + AZD7762; first compound 0.06325 µM) | relative viability (Ponatinib + AZD7762; first compound 0.2 µM) | relative viability (Pazopanib + Phenformin; first compound 0.01 µM) | relative viability (Pazopanib + Phenformin; first compound 0.03162 µM) | relative viability (Pazopanib + Phenformin; first compound 0.1 µM) | relative viability (Pazopanib + Phenformin; first compound 0.3162 µM) | relative viability (Pazopanib + Phenformin; first compound 1 µM) | relative viability (Ponatinib + Tozasertib; first compound 0.002 µM) | relative viability (Ponatinib + Tozasertib; first compound 0.006325 µM) | relative viability (Ponatinib + Tozasertib; first compound 0.06325 µM) | relative viability (Ponatinib + Tozasertib; first compound 0.2 µM) | relative viability (Ponatinib + Pemetrexed; first compound 0.002 µM) | relative viability (Ponatinib + Pemetrexed; first compound 0.006325 µM) | relative viability (Ponatinib + Pemetrexed; first compound 0.06325 µM) | relative viability (Ponatinib + Pemetrexed; first compound 0.2 µM)
NCI-H1915 | 0.553 | 0.697 | 0.591 | 0.651 | 0.402 | 0.364 | 0.367 | 0.36 | 0.343 | 0.396 | 0.487 | 0.313 | 0.366 | 0.459 | 0.423 | 0.529 | 0.423
NCI-H1944 | 0.454 | 0.489 | 0.543 | 0.664 |  | 0.191 | 0.218 | 0.227 | 0.228 | 0.24 | 0.246 | 0.247 | 0.255 | 0.631 | 0.662 | 0.676 | 0.719
NCI-H1975 | 0.599 | 0.706 | 0.726 | 0.615 | 0.399 | 0.437 | 0.445 | 0.471 | 0.502 | 0.677 | 0.774 | 0.275 | 0.196 | 0.276 | 0.293 | 0.297 | 0.257
NCI-H1993 | 0.65 | 0.86 | 0.773 | 0.689 |  | 0.457 | 0.502 | 0.591 | 0.496 | 0.639 | 0.635 | 0.582 | 0.555 | 0.691 | 0.62 | 0.573 | 0.678
NCI-H2085 | 0.962 | 0.944 | 0.909 | 0.814 | 0.624 | 0.835 | 0.683 | 0.694 | 0.833 | 0.722 | 0.849 | 0.662 | 0.576 | 0.852 | 0.894 | 1.04 | 0.874
NCI-H2087 | 1.05 | 1.07 | 1.43 | 1.19 | 0.373 | 0.464 | 0.445 | 0.483 | 0.513 | 0.259 | 0.237 | 0.21 | 0.155 | 0.673 | 0.648 | 0.657 | 0.579
NCI-H2126 | 0.978 | 0.965 | 1.09 | 0.998 | 0.489 | 0.521 | 0.537 | 0.53 | 0.587 | 0.868 | 0.836 | 0.954 | 0.754 | 0.835 | 0.757 | 0.818 | 0.658
NCI-H2170 | 0.799 | 0.927 | 0.789 | 0.833 | 0.507 | 0.406 | 0.393 | 0.423 | 0.388 | 0.755 | 0.674 | 0.651 | 0.665 | 0.238 | 0.263 | 0.281 | 0.331
NCI-H2342 | 0.436 | 0.457 | 0.467 | 0.456 | 0.501 | 0.635 | 0.538 | 0.572 | 0.569 | 0.489 | 0.639 | 0.403 | 0.591 | 0.71 | 0.733 | 0.726 | 0.646
NCI-H2347 | 0.747 | 0.75 | 0.626 | 0.662 | 0.218 | 0.385 | 0.38 | 0.468 | 0.377 | 0.473 | 0.669 | 0.417 | 0.51 | 0.41 | 0.444 | 0.474 | 0.485
NCI-H2405 | 0.622 | 0.73 | 0.705 | 0.542 | 0.368 | 0.399 | 0.426 | 0.419 | 0.448 | 0.728 | 0.809 | 0.711 | 0.681 | 0.913 | 1.06 | 1.1 | 1.01
NCI-H3122 | 0.846 | 0.903 | 1.05 | 0.924 | 0.417 | 0.388 | 0.345 | 0.36 | 0.376 | 0.43 | 0.421 | 0.382 | 0.359 | 0.208 | 0.194 | 0.214 | 0.194
PC-3 [JPC-3] |  | 0.901 | 1 | 0.873 | 0.52 | 0.465 | 0.513 | 0.472 | 0.478 | 0.851 | 0.822 | 0.951 | 0.824 |  | 1.09 | 1.12 | 1.1
PC-14 | 0.218 | 0.305 | 0.396 | 0.458 | 0.747 | 0.692 | 0.607 | 0.823 | 0.677 | 0.527 | 0.628 | 0.609 | 0.472 | 0.129 | 0.137 | 0.141 | 0.122
RERF-LC-KJ | 0.838 | 0.951 | 1.13 | 0.961 | 0.445 | 0.419 | 0.43 | 0.417 | 0.417 | 0.476 | 0.474 | 0.405 | 0.281 | 0.468 | 0.492 | 0.486 | 0.453
SW 900 | 0.569 | 0.46 | 0.606 | 0.537 | 0.532 | 0.628 | 0.398 | 0.593 | 0.689 | 0.58 | 0.51 | 0.337 | 0.38 | 0.458 | 0.495 | 0.457 | 0.464
